Test [1] addresses T1, KDM5B (Homo sapiens, UniProt Q9UGL1).
T1 construct: Full length of KDM5B and KDM4C protein were purchased from Active Motif; purchased Active Motif 31832
As to the kind of experiment: biochemical. The procedure, abridged:
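KDM5B (0.5 nM final) was preincubated with compound for 15 min at room temperature, then reacted with biotinylated peptide (3 nM final) for 25 min at room temperature.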

Test [2] addresses T2, KDM4C (Homo sapiens, UniProt Q9H3R0).
T2 construct: Full length of KDM5B and KDM4C protein were purchased from Active Motif; purchased Active Motif 31858
T2 sequence (Q9H3R0 1-1056): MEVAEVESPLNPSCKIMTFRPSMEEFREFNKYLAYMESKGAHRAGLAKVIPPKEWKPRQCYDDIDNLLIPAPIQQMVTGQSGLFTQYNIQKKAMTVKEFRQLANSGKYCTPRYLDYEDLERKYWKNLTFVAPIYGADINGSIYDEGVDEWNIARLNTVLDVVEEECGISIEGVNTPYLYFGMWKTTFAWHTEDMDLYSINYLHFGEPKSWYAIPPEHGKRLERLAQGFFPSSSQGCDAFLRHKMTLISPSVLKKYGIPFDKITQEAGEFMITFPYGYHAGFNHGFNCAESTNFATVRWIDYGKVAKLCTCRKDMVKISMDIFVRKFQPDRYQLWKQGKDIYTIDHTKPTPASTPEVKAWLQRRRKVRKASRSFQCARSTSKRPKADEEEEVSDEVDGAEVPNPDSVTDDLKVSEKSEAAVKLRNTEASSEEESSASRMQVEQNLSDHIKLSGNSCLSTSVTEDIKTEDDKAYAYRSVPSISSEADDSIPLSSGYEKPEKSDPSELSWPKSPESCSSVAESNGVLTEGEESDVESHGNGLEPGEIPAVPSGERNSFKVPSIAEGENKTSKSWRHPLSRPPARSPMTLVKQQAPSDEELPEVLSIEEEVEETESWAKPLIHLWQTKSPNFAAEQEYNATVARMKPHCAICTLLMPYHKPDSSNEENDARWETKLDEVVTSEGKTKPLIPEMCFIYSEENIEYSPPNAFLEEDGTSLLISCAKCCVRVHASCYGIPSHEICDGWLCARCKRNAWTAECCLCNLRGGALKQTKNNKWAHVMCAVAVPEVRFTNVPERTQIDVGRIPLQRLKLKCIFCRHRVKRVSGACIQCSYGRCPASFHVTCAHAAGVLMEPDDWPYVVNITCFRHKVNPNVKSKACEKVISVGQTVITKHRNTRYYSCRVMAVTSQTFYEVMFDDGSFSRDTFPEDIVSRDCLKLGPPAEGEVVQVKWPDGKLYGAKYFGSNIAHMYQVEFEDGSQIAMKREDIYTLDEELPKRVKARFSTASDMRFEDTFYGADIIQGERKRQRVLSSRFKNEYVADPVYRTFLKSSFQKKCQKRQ
The test can be described thus: KDM4C AlphaScreen assay. The format is biochemical. The following applies: AlphaScreen; full length KDM4C 0.2 nM; biotinylated H3K9Me3 peptide 3 nM; 30 minutes at room temperature. Summed up: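 Full-length KDM4C (0.2 nM final) was preincubated 15 min at RT with compound in HEPES pH 7.4 with Tween-20, BSA and TCEP. The reaction ran 30 min at RT after adding biotinylated peptide (3 nM final) in buffer with Fe(II), α-ketoglutarate and ascorbate. EDTA-containing AlphaScreen beads stopped it; IC50 was curve-fitted.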

Where [3] appears, read: AlphaScreen, full length KDM5B 0.5 nM, biotinylated H3K4Me3 peptide 3 nM, 25 minutes at room temperature, read-out: KDM5B (IC50).

Where two headings read alike, the source gives them in different places.

T1 sequence (Q9UGL1 whole entry): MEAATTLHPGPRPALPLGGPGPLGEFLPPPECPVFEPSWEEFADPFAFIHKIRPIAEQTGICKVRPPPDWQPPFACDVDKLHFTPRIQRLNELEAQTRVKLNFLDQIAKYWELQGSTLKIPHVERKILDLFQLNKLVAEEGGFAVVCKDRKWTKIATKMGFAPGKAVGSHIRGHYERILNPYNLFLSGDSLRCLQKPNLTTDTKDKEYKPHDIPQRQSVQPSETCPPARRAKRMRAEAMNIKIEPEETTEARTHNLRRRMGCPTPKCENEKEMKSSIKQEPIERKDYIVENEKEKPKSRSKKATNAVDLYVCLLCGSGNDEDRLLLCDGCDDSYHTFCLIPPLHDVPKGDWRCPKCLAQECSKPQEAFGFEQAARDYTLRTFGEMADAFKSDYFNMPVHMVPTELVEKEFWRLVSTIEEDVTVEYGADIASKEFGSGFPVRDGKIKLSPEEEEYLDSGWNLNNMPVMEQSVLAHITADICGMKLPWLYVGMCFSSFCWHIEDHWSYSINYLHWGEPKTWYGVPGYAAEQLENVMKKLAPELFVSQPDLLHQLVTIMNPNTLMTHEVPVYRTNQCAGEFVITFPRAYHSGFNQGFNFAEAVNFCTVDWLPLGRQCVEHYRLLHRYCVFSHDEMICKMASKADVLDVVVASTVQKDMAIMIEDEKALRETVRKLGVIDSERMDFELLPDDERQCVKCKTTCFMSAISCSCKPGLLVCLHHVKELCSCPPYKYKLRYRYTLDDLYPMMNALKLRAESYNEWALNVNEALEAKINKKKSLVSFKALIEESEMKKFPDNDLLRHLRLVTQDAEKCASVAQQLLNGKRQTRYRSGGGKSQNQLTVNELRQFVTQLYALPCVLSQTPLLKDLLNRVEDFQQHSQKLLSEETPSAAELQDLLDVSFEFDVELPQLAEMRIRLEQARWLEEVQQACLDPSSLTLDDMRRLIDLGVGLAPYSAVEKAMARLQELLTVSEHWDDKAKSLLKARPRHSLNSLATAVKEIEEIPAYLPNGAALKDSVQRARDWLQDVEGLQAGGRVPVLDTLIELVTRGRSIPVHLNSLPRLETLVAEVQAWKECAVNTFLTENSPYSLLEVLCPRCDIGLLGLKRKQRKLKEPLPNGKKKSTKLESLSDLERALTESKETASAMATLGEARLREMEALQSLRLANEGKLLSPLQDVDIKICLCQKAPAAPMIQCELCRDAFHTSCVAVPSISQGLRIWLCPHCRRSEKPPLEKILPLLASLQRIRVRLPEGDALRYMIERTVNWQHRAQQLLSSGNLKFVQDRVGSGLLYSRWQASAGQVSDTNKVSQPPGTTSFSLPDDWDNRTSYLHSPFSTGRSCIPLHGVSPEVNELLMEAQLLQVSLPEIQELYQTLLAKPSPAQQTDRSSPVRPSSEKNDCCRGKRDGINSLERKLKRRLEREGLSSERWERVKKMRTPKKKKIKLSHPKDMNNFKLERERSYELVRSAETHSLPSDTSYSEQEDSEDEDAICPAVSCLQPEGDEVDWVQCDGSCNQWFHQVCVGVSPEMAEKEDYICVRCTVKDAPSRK

Consider `CC(C)c1c(O)nc(-n2ccnc2)nc1-c1ccc(CNS(C)(=O)=O)cc1` [Example 48, N-({4-[6-Hydroxy-2-(1H-imidazol-1-yl)-5-(propan-2-yl)pyrimidin-4-yl]phenyl}-methyl)methanesulfonamide], for which the IC50 (in general, the concentration needed to halve the response being measured) in test [1] (setting [3]) came to 13 nM; in test [2] it was 1260 nM.
Take `CCCn1cc(-c2nc(-n3ccnc3)nc(O)c2C(C)C)cn1` [Example 56, 2-(1H-Imidazol-1-yl)-5-(propan-2-yl)-6-(1-propyl-1H-pyrazol-4-yl)pyrimidin-4-ol]: the IC50 in test [1] was 15 nM; in test [2] it was 996 nM.
For `CC(C)c1c(O)nc(-n2ccnc2)nc1-c1cnn(C2CCOCC2)c1` [Example 59, 2-(1H-Imidazol-1-yl)-6-[1-(oxan-4-yl)-1H-pyrazol-4-yl]-5-(propan-2-yl)pyrimidin-4-ol], the IC50 was found to be 16 nM in test [1] and 746 nM in test [2].
For `CC(C)c1c(O)nc(-n2ccnc2)nc1OCc1ccncn1` [Example 136, 2-(1H-Imidazol-1-yl)-5-(propan-2-yl)-6-(pyrimidin-4-ylmethoxy)pyrimidin-4-ol], in that order: 55 nM and 2410 nM.
On to `CC(C)c1c(O)nc(-n2ccnc2)nc1-c1cnn(CC(=O)NCCCN(C)C)c1` [Example 90, N-[3-(Dimethylamino)-propyl]-2-{4-[6-hydroxy-2-(1H-imidazol-1-yl)-5-(propan-2-yl)pyrimidin-4-yl]-1H-pyrazol-1-yl}acetamide], for which the values for the IC50 in test [1] (setting [3]) and in test [2] were 4 nM and 410 nM, respectively.
As for `CCn1cc(-c2nc(-n3ccnc3)nc(O)c2C(C)C)cn1` [Example 66, 6-(1-Ethyl-1H-pyrazol-4-yl)-2-(1H-imidazol-1-yl)-5-(propan-2-yl)pyrimidin-4-ol], the concentration for half-maximal inhibition (IC50) in test [1] was 19 nM; in test [2], 1180 nM.
Take `CC(C)c1c(O)nc(-c2cncs2)nc1OCc1ccncc1` [Example 144, 5-(Propan-2-yl)-6-(pyridin-4-ylmethoxy)-2-(1,3-thiazol-5-yl)pyrimidin-4-ol]: the IC50 is 140 nM in test [1] (setting [3]) and 2920 nM in test [2].
On to `CC(C)c1c(O)nc(-n2ccnc2-c2ccccn2)nc1-c1cnn(C(C)C)c1` [Example 3, 5-(Propan-2-yl)-6-[1-(propan-2-yl)-1H-pyrazol-4-yl]-2-[2-(pyridin-2-yl)-1H-imidazol-1-yl]pyrimidin-4-ol], for which the IC50 in test [1] is 372 nM; in test [2], 9680 nM.
In the case of `CC(C)c1c(O)nc(-n2ccnc2)nc1-c1cnn(CC(=O)NCCN2CCC(F)(F)CC2)c1` [Example 96, N-[2-(4,4-Difluoropiperidin-1-yl)ethyl]-2-{4-[6-hydroxy-2-(1H-Imidazol-1-yl)-5-(propan-2-yl)pyrimidin-4-yl]-1H-pyrazol-1-yl}acetamide], the IC50 came out at 7 nM in test [1] and 779 nM in test [2].
Consider `CC(C)c1c(O)nc(-n2ccnc2)nc1-c1cnn(CCC#N)c1` [Example 44, 3-{4-[6-Hydroxy-2-(1H-imidazol-1-yl)-5-(propan-2-yl)pyrimidin-4-yl]-1H-pyrazol-1-yl}propanenitrile], for which the IC50 in test [1] was 10 nM; in test [2], 815 nM.
In the case of `CC(C)c1c(O)nc(-n2ccnc2)nc1OCCC1CCN(C(=O)CCO)CC1` [Example 14, 3-hydroxy-1-[4-(2-{[6-hydroxy-2-(1H-imidazol-1-yl)-5-(propan-2-yl)pyrimidin-4-yl]oxy}-ethyl)piperidin-1-yl]propan-1-one], the IC50 in test [1] amounted to 32 nM; in test [2], 2010 nM.
`CC(C)c1c(O)nc(-n2ccnc2)nc1-c1cnn(CC(=O)NCCN2CCC(O)CC2)c1` [Example 92, 2-{4-[6-Hydroxy-2-(1H-imidazol-1-yl)-5-(propan-2-yl)pyrimidin-4-yl]-1H-pyrazol-1-yl}-N-[2-(4-hydroxypiperidin-1-yl)ethyl]-acetamide]: the IC50 was found to be 6 nM in test [1] and 525 nM in test [2].
For the compound `CC(C)c1c(O)nc(-n2ccnc2)nc1OCC1CN(C(=O)OCc2ccccc2)CCN1` (centres unmarked) [Example 127, Benzyl 3-({[6-hydroxy-2-(1H-imidazol-1-yl)-5-(propan-2-yl)pyrimidin-4-yl]-oxy}methyl)piperazine-1-carboxylate], the 50% inhibitory concentration (IC50) in test [1] (setting [3]) stood at 18 nM; in test [2], 3080 nM.
Consider `CC(C)c1c(O)nc(-n2ccnc2)nc1Oc1cccnc1` [Example 28a, 2-(1H-Imidazol-1-yl)-5-isopropyl-6-(pyridin-3-yloxy)pyrimidin-4-ol], for which the IC50 in test [1] stood at 32 nM; in test [2], 1750 nM.
As for `CC(C)c1c(O)nc(-n2ccnc2)nc1-c1cnn(CC(C)(C)O)c1` [Example 81, 6-[1-(2-Hydroxy-2-methyl-propyl)-1H-pyrazol-4-yl]-2-(1H-imidazol-1-yl)-5-(propan-2-yl)pyrimidin-4-ol], the IC50 in test [1] worked out at 60 nM; in test [2], 4040 nM.
For `Cc1nc(-c2cn[nH]c2)nc(O)c1C(C)C` [Example 26, 5-Isopropyl-6-methyl-2-(1H-pyrazol-4-yl)pyrimidin-4-ol], in that order: 1070 nM and 15800 nM.

For the origin of these results see patent US20190135793A1, “HETEROCYCLIC INHIBITORS OF KDM5 FOR THE TREATMENT OF DISEASE” (Board of Regents, The University of Texas System, priority 2017, published 2019).
